Key:
[1] = biological target: T1, GDP-loaded KRAS (1-169) G12C, C51S, C80L, C118S (Homo sapiens, UniProt P01116, C118S/C51S/C80L/G12C); test: Mass Spectrometry Reactivity Assay (MSRA): covalent adduct of compound and KRAS G12C, Percent Modification; type: binding; conditions: for MSRA (% modification) 5.0 μM 0.017 hr / MSRA (% modification) 5.0 μM 0.25 hr: 5.0 μM compound; for MSRA (% modification) 10 μM 0.25 hr / MSRA (% modification) 10 μM 0.50 hr: 10 μM compound
T1 construct: GDP-loaded KRAS (1-169) G12C, C51S, C80L, C118S
Outline: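 GDP-loaded KRAS(1-169) G12C/C51S/C80L/C118S at 5 μM in 25 mM Hepes pH 7.5, 200 mM NaCl, 5% glycerol incubated at RT with compound (typically 5 or 10 μM final, 1% DMSO). Quenched in formic acid at 1-60 min; intact-protein LC-TOF MS gives % modification = modified/(modified+unmodified).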

KRAS G12C = KRAS G12C (Homo sapiens, UniProt P01116, G12C); test: Cell Activity Assay: accumulation of GDP-bound KRAS G12C in MIAPaCa-2 cells (Raf-1 RBD capture, MSD readout); type: cell-based; design: endogenous in cells; host or cells: MIAPaCa-2; conditions: 6 hours, assay limit is 30.00
Outline: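 MIAPaCa-2 cells exposed 6 h at 37 °C to 3-fold compound dilutions (0.3% DMSO final), then lysed. Active GTP-KRAS captured on Raf-1 RBD-coated plates, detected with anti-pan-Ras and SULFO-TAG secondary by MSD electrochemiluminescence. Signal normalized to DMSO and maximum inhibition; IC50 from 4-parameter fit.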

MSRA (% modification) 5.0 μM 0.017 hr [1] [%] | MSRA (% modification) 5.0 μM 0.25 hr [1] [%] | MSRA (% modification) 10 μM 0.25 hr [1] [%] | IC50 (KRAS G12C) [µM] | MSRA (% modification) 10 μM 0.50 hr [1] [%] | SMILES
55 |  |  | 0.055 |  | C=CC(=O)N1CCN(c2nc(Oc3cccc4c3CCN(C)C4)nc3c(Oc4c(C)ccc5[nH]ncc45)nccc23)CC1 [Example 38I, 1-(4-{8-[(5-methyl-1H-indazol-4-yl)oxy]-2-[(2-methyl-1,2,3,4-tetrahydro-isoquinolin-5-yl)oxy]pyrido [3,4-d]pyrimidin-4-yl}piperazin-1-yl)prop-2-en-1-one]
 |  |  | 29.7 | 20 | C=CC(=O)N1CCN(c2ncnc3c(Oc4cc(O)cc5ccccc45)nccc23)CC1 [Example 06, 1-(4-{8-[(3-Hydroxynaphthalen-1-yl)oxy]pyrido[3,4-d]pyrimidin-4-yl}piperazin-1-yl)prop-2-en-1-one]
 | 14 |  | 0.366 |  | C=CC(=O)N1CCN(c2nc(Oc3cccnc3C)nc3c(Oc4c(Cl)c(F)cc5[nH]ncc45)nccc23)CC1 [Example 14I, 1-(4-{8-[(5-chloro-6-fluoro-1H-indazol-4-yl)oxy]-2-[(2-methyl-pyridin-3-yl)oxy]pyrido [3,4-d]pyrimidin-4-yl}piperazin-1-yl)prop-2-en-1-one]
 |  |  | 1.44 | 40 | C=CC(=O)N1CCN(c2nc(OCCN(C)C)nc3c(Oc4c(C)ccc5[nH]ncc45)cccc23)CC1 [Example 03E, 1-(4-{2-[2-(dimethylamino)ethoxy]-8-[(5-methyl-1H-indazol-4-yl)oxy]quinazolin-4-yl}piperazin-1-yl)prop-2-en-1-one]
 |  |  | 11.6 | 20 | C=CC(=O)N1CCN(c2ncnc3c(Oc4c(C)c(Cl)cc5[nH]ncc45)nccc23)C[C@@H]1C [Example 23A, 1-[(2S)-4-{8-[(6-chloro-5-methyl-1H-indazol-4-yl)oxy]pyrido[3,4-d]pyrimidin-4-yl}-2-methylpiperazin-1-yl]prop-2-en-1-one]
 |  |  | 1.01 | 65 | C=CC(=O)N1CCN(c2nc(N3CC(N(C)C)C3)nc3c(Oc4c(Cl)c(C)cc5[nH]ncc45)cccc23)CC1 [Example 14E, 1-(4-{8-[(5-chloro-6-methyl-1H-indazol-4-yl)oxy]-2-[3-(dimethylamino)azetidin-1-yl]quinazolin-4-yl}piperazin-1-yl)prop-2-en-1-one]
 |  |  | 5.21 | 27 | C=CC(=O)N1CCN(c2ncnc3c(Oc4c(C)ccc5[nH]ncc45)cccc23)[C@@H](C)C1 [Example 10C, 1-[(3S)-3-methyl-4-{8-[(5-methyl-1H-indazol-4-yl)oxy]quinazolin-4-yl}piperazin-1-yl]prop-2-en-1-one]
 | 61 |  | 0.283 |  | C=CC(=O)N1CCN(c2nc(OCC3CCCCN3C)nc3c(Oc4c(C)ccc5[nH]ncc45)cccc23)CC1 (stereo not drawn) [Example 21F, 1-(4-{8-[(5-methyl-1H-indazol-4-yl)oxy]-2-[(1-methylpiperidin-2-yl)methoxy]quinazolin-4-yl}piperazin-1-yl)prop-2-en-1-one]
 |  |  | 2.98 | 29 | C=CC(=O)N1CCN(c2ncnc3c(Oc4c(Cl)ccc5[nH]ncc45)cccc23)CC1 [Example 08C, 1-(4-{8-[(5-chloro-1H-indazol-4-yl)oxy]quinazolin-4-yl}piperazin-1-yl)prop-2-en-1-one]
 |  |  | 6.75 | 26 | C=CC(=O)N1CCN(c2ncnc3c(Oc4c(Cl)ccc5[nH]ncc45)nccc23)CC1 [Example 06A, 1-(4-{8-[(5-chloro-1H-indazol-4-yl)oxy]pyrido[3,4-d]pyrimidin-4-yl}piperazin-1-yl)prop-2-en-1-one]
 |  | 44 | 0.394 | 69 | C=CC(=O)N1CCN(c2ncnc3c(Oc4c(Br)c(C)cc5[nH]ncc45)nccc23)CC1 [Example 13A, 1-(4-{8-[(5-bromo-6-methyl-1H-indazol-4-yl)oxy]pyrido[3,4-d]pyrimidin-4-yl}piperazin-1-yl)prop-2-en-1-one]

The remaining lines, values behind:

SMILES | MSRA (% modification) 5.0 μM 0.017 hr [1] [%] | MSRA (% modification) 5.0 μM 0.25 hr [1] [%] | MSRA (% modification) 10 μM 0.25 hr [1] [%] | IC50 (KRAS G12C) [µM] | MSRA (% modification) 10 μM 0.50 hr [1] [%]
C=CC(=O)N1CCN(c2nc(OC[C@@H]3CCCN3C)nc3c(Oc4c(Cl)c(C)cc5[nH]ncc45)nc(Cl)cc23)CC1 [Example 06G, 1-[4-(6-chloro-8-[(5-chloro-6-methyl-1H-indazol-4-yl)oxy]-2-{[(2S)-1-methylpyrrolidin-2-yl]methoxy}pyrido[3,4-d]pyrimidin-4-yl)piperazin-1-yl]prop-2-en-1-one] | 23 | 52 | 82 | 0.064 | 
C=CC(=O)N1CCN(c2nc(OC[C@@H]3COCCN3C)nc3c(Oc4c(Cl)c(F)cc5[nH]ncc45)nccc23)CC1 [Example 03H, 1-[4-(8-[(5-chloro-6-fluoro-1H-indazol-4-yl)oxy]-2-{[(3S)-4-methylmorpholin-3-yl]methoxy}pyrido[3,4-d]pyrimidin-4-yl)piperazin-1-yl]prop-2-en-1-one] |  | 51 |  | 0.842 | 72
C=CC(=O)N1CCN(c2nc(OC[C@@H]3CCCN3C)nc3c(Oc4c(C)c(F)cc5[nH]ncc45)nccc23)CC1 [Example 04I, 1-[4-(8-[(6-fluoro-5-methyl-1H-indazol-4-yl)oxy]-2-{[(2S)-1-methyl-pyrrolidin-2-yl]methoxy}pyrido [3,4-d]pyrimidin-4-yl)piperazin-1-yl]prop-2-en-1-one] |  | 55 |  | 0.375 | 
C=CC(=O)N1CCN(c2nc(OC[C@@H]3CCCN3C)nc3c(Oc4c(C)ccc5[nH]ncc45)nccc23)CC1 [Example 08B, 1-[4-(8-[(5-methyl-1H-indazol-4-yl)oxy]-2-{[(2S)-1-methylpyrrolidin-2-yl]methoxy}pyrido[3,4-d]pyrimidin-4-yl)piperazin-1-yl]prop-2-en-1-one] |  |  | 44 | 2.56 | 
C=CC(=O)N1CCN(c2nc(OCC3CCOC3)nc3c(Oc4c(Cl)c(F)cc5[nH]ncc45)nc(Cl)cc23)CC1 (stereo not drawn) [Example 12G, 1-(4-{6-chloro-8-[(5-chloro-6-fluoro-1H-indazol-4-yl)oxy]-2-(tetrahydrofuran-3-ylmethoxy)pyrido[3,4-d]pyrimidin-4-yl}piperazin-1-yl)prop-2-en-1-one] |  |  | 75 | 0.071 | 
C=CC(=O)N1CCN(c2nc(N3CCN(C)CC3)nc3c(Oc4c(C)ccc5[nH]ncc45)nccc23)CC1 [Example 03B, 1-(4-{8-[(5-methyl-1H-indazol-4-yl)oxy]-2-(4-methylpiperazin-1-yl)pyrido[3,4-d]pyrimidin-4-yl}piperazin-1-yl)prop-2-en-1-one] |  |  |  | 27.1 | 6
C=CC(=O)N1CCN(c2nc(O[C@@H]3CN(C)C[C@H]3C(F)F)nc3c(Oc4c(Cl)c(F)cc5[nH]ncc45)nccc23)CC1 (single isomer, unassigned) [Example 59I] | 13 |  |  | 0.123 | 
C=CC(=O)N1CCN(c2nc(O[C@@H]3COC[C@H]3N(C)C)nc3c(Oc4c(Cl)c(F)cc5[nH]ncc45)nccc23)CC1 (racemic) [Example 23I, rac-1-[4-(8-[(5-chloro-6-fluoro-1H-indazol-4-yl)oxy]-2-{[(3S,4R)-4-(dimethyl-amino)oxolan-3-yl]oxy}pyrido [3,4-d]pyrimidin-4-yl)piperazin-1-yl]prop-2-en-1-one] | 12 |  |  | 0.348 | 
